Reference: patent publication US10899755B2, “Benzothiazole compounds and uses thereof” (Incyte Corporation, priority 2018, dated 2021)

Legend:
HPK1 [1] = assay: HPK1 Kinase Binding Assay; details: active HPK1 (SignalChem M23-11G), tracer 222, LanthaScreen Eu-Anti GST antibody, one hour incubation at 25° C.
Experimental: (§1) A stock solution of 1 mM test compound was prepared in DMSO. The compound plate was prepared by 3-fold and 11-point serial dilutions. 0.1 μL of the compound in DMSO was transferred from the compound plate to the white 384 well polystyrene plates. The assay buffer contained 50 mM HEPES, pH 7.5, 0.01% Tween-20, 5 mM MgCl2, 0.01% BSA, and 5 mM DTT. 5 μL of 4 nM active HPK1 (SignalChem M23-11G) prepared in the buffer was added to the plate. The enzyme concentration given was based on the given stock concentration reported by the vender. […] After one hour incubation at 25° C., the plates were read on a PHERAstar FS plate reader (BMG Labtech). Ki values were determined.

HPK1 [2] = biological target: HPK1 (Homo sapiens, UniProt Q92918); assay: HPK1 Kinase Binding Assay; details: active HPK1 (SignalChem M23-11G), tracer 222, LanthaScreen Eu-Anti GST antibody, one hour incubation at 25° C.
HPK1 (Homo sapiens, UniProt Q92918), sequence (Q92918 whole entry, looked up): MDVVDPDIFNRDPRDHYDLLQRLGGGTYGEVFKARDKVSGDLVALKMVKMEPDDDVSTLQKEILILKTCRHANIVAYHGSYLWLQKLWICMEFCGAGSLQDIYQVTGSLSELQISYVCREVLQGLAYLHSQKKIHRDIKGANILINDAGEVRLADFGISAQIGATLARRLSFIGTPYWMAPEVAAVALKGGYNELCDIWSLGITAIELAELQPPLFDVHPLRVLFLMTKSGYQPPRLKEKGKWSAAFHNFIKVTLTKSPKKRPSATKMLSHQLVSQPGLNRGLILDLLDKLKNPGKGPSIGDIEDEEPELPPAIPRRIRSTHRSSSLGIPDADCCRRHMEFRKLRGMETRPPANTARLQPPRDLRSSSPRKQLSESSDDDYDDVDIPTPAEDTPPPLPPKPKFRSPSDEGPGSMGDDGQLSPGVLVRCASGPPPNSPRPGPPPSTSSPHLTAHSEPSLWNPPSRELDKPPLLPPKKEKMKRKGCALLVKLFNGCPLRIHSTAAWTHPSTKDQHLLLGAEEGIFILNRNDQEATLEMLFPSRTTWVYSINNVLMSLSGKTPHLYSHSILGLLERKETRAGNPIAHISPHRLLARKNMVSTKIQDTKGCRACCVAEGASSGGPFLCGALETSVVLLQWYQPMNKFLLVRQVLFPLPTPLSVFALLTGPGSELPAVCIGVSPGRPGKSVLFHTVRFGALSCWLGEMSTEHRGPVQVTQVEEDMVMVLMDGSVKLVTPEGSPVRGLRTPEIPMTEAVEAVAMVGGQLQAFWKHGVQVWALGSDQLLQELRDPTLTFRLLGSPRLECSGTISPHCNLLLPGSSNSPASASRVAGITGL
Experimental: as §1

| Ki (HPK1 [1]) [nM] | Ki (HPK1 [2]) [nM] | Structure (SMILES) |
| --- | --- | --- |
| < 100 | – | Cc1nc2c(N3CC[C@@H](N)C3)c(NC(=O)c3ccnc(-c4c(F)cccc4C(F)(F)F)n3)ccc2s1 [Example 3, (R)—N-(4-(3-Aminopyrrolidin-1-yl)-2-methylbenzo[d]thiazol-5-yl)-2-(2-fluoro-6-(trifluoromethyl)phenyl)pyrimidine-4-carboxamide] |
| – | < 100 | Cc1nc2c(N3C[C@@H]4CC[C@H]3CN4)c(NC(=O)c3ccnc(-c4c(F)cccc4F)n3)ccc2s1 [Example 31, N-(4-((1S,4S)-2,5-Diazabicyclo[2.2.2]octan-2-yl)-2-methylbenzo[d]thiazol-5-yl)-2-(2,6-difluorophenyl)pyrimidine-4-carboxamide] |
| – | < 100 | COc1cccc(F)c1-c1nccc(C(=O)Nc2ccc3sc(CN(C)C)nc3c2N2C[C@H](N)C[C@H]2CO)n1 [Example 32, N-(4-((2S,4R)-4-amino-2-(hydroxymethyl)pyrrolidin-1-yl)-2-((dimethylamino)methyl)benzo[d]thiazol-5-yl)-2-(2-fluoro-6-methoxyphenyl)pyrimidine-4-carboxamide] |
